Experimental data as given in patent US10030012B2, “Piperidin-1-yl and azepin-1-yl carboxylates as muscarinic M4 receptor agonists” (Heptares Therapeutics Limited, priority 2013, dated 2018).

How the values were obtained:
[1] = biological target: human M2 receptor (Homo sapiens (Human), UniProt P08172); assay: In vitro M2 functional assay (intracellular calcium, FLiPR Tetra); format: cell-based; conditions: for M2 EC50 / EC50: CHOK1 cells stably expressing human M2 receptor and Gα16, calcium flux, No Response = no significant response of calcium flux indicative of agonism; for activation at 10 µM: response at 10 μM compound, relative to an EC100 concentration of acetylcholine, read-out: M2 % RE @ 10 μM; for M2 % RE: relative efficacy to an EC100 concentration of acetylcholine
Chain of human M2 receptor (P08172 whole entry): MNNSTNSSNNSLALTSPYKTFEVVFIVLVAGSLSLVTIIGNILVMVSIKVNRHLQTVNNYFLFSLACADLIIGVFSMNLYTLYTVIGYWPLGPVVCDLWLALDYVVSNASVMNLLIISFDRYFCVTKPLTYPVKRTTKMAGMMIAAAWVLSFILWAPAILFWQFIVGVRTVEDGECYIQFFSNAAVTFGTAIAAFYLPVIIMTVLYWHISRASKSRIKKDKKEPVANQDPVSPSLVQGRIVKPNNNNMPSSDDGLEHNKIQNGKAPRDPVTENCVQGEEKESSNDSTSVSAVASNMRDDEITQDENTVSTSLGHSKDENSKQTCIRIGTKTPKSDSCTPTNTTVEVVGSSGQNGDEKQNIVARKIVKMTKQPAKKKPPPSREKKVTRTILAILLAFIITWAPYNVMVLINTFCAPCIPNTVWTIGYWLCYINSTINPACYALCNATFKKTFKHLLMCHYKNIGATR
Protocol: (§1) In Vitro M4 &M2 Functional Assay
(§2) The functional activity of compounds at the M4 and M2 receptors was determined by measuring changes in the level of intracellular calcium ions caused by signalling cascades mediated by the receptor. Intracellular Calcium levels were measured using a calcium sensitive fluorescent dye, calcium 5 (Molecular Devices) The changes in fluorescence were monitored by a fluorescent imager, FLiPR Tetra (Molecular devices). Increases in intracellular calcium were readily detected upon activation of both receptors by the muscarinic receptor agonist Acetylcholine.
(§3) CHOK1 cells stably expressing human M4 or M2 receptor and co-expressing the accessory g-protein Gα16 were routinely grown as monolayers in Hams-F12 medium (Invitrogen) supplemented with 10% foetal bovine serum (FBS) (Hyclone), 500 ug/mL Geneticin and 250 ug/mL zeocin (both invitrogen) in 5% CO2 at 37° C. Once confluent is cells cryopreserved by freezing at −186° C. in freezing solution (90% FBS 10% DMSO) (Sigma-Aldrich Co.). Twenty-four hours prior to testing cells resuscitated and freezing media removed via centrifugation, cells then seeded in a black walled clear bottom 384 well plates (Corning) at a density of 15,000 cells/well in Hams F12 media supplemented with 10% FBS. On the day of assay, growth media was removed and replaced with 63 μl of Calcium 5 dye solution (Molecular Devices) in assay buffer (HBSS, 20 mM HEPES, 0.1% BSA, 1 mM Probenecid pH7.4 (Sigma-Aldrich Co.)) per well (each vial of Calcium 5 resuspended in 27 mL of assay buffer). Cells were then incubated for 45 minutes at 37° C., 5% CO2. Compound was serially diluted in DMSO (log/half log) before being diluted 1:20 with assay buffer. 7 μl of compound diluted in assay buffer was then added to cells on FLiPR tetra and fluorescence intensity measured for 5 minutes. EC50 values for compounds were determined from ten point half log scale dose-response studies and represent the concentration of compound required to […] maximal response. Curves were generated using the average of duplicate wells for each data point and analyzed using non-linear regression of four parameter dose response. Percentage Relative efficacy (RE) to an EC100 concentration of acetylcholine was reported for all compounds. The results are set out in Table 3 below in which the term “No Response” means that there was no significant response of calcium flux in the assay indicative of agonism.

[2] = biological target: human M4 receptor (Homo sapiens (Human), UniProt P08173); assay: In vitro M4 functional assay (intracellular calcium, FLiPR Tetra); format: cell-based; conditions: for EC50: CHOK1 cells stably expressing human M4 receptor and Gα16, calcium flux; for Emax: relative efficacy to an EC100 concentration of acetylcholine, read-out: M4 % RE
Chain of human M4 receptor (P08173 whole entry): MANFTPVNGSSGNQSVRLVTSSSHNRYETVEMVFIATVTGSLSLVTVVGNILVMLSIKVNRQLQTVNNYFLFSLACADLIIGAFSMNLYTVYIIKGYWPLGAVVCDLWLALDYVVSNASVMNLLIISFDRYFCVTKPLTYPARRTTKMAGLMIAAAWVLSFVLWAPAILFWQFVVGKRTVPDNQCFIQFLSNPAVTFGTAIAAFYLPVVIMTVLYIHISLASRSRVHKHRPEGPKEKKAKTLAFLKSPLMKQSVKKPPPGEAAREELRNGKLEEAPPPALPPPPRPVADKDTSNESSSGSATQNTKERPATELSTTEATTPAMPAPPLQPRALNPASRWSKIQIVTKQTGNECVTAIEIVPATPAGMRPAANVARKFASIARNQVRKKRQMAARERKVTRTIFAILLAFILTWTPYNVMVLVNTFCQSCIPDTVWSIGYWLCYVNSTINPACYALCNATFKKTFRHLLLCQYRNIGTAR
Protocol: as §1, §2, §3

| SMILES | M2 EC50 [1] | EC50 [2] | Emax [2] | EC50 [1] | activation at 10 µM [1] | M2 % RE [1] |
| --- | --- | --- | --- | --- | --- | --- |
| CCOC(=O)N1CCCC(N2CCC(c3cccnc3OCC)CC2)CC1 (stereo not drawn) [Example 53, Ethyl 4-[4-(2-ethoxypyridin-3-yl)piperidin-1-yl]azepane-1-carboxylate] | No Response | 60 nM | 80% |  |  |  |
| CCOC(=O)N1CCCC(N2CCC(c3nnc(C(C)C)o3)CC2)CC1 (stereo not drawn) [Example 15, Ethyl 4-(4-(5-isopropyl-1,3,4-oxadiazol-2-yl)piperidin-1-yl)azepane-1-carboxylate] | No Response | 1280 nM | 44% |  |  |  |
| CCOC(=O)N1CCC[C@H](N2CCC(c3cccnc3OC)CC2)CC1 [Example 85, Ethyl (4S)-4-[4-(2-methoxypyridin-3-yl)piperidin-1-yl]azepane-1-carboxylate] | No response | 26 nM | 91% |  |  |  |
| CCOC(=O)N1CCCC(N2CCC(c3cc(Cl)cnc3OC)CC2)CC1 (stereo not drawn) [Example 58, Ethyl 4-[4-(5-chloro-2-methoxypyridin-3-yl)piperidin-1-yl]azepane-1-carboxylate] | No Response | 2 nM | 95% |  |  |  |
| CCOC(=O)N1CCCC(N2CCC(c3cccnc3NCC3CC3)CC2)CC1 (stereo not drawn) [Example 67, Ethyl 4-(4-{2-[(cyclopropylmethyl)amino]pyridin-3-yl}piperidin-1-yl)azepane-1-carboxylate] | No Response | 990 nM | 37% |  |  |  |
| CCOC(=O)N1CCCC(N2CCC(c3cccc(OC)n3)CC2)CC1 (stereo not drawn) [Example 33, Ethyl 4-[4-(6-methoxypyridin-2-yl)piperidin-1-yl]azepane-1-carboxylate] | No Response | 180 nM | 61% |  |  |  |
| CCOC(=O)N1CCCC(N2CCC(n3nccc3-c3sc(C)nc3C)CC2)CC1 (stereo not drawn) [Example 25, Ethyl 4-{4-[5-(dimethyl-1,3-thiazol-5-yl)-1H-pyrazol-1-yl]piperidin-1-yl}azepane-1-carboxylate] | No Response | 270 nM | 46% |  |  |  |
| CCOC(=O)N1CCCC(N2CCC(n3nccc3C#N)CC2)CC1 (stereo not drawn) [Example 27, Ethyl 4-[4-(5-cyano-1H-pyrazol-1-yl)piperidin-1-yl]azepane-1-carboxylate] | No Response | 320 nM | 55% |  |  |  |
| CCOC(=O)N1CCCC(N2CCC(n3ccc(C)n3)CC2)CC1 (stereo not drawn) [Example 16, Ethyl 4-[4-(3-methyl-1H-pyrazol-1-yl)piperidin-1-yl]azepane-1-carboxylate] |  | 400 nM | 72% | > 10000 nM | 24% |  |
| CCOC(=O)N1CCCC(N2CCC(c3cccnc3-c3ccnn3C)CC2)CC1 (stereo not drawn) [Example 64, Ethyl 4-{4-[2-(1-methyl-1H-pyrazol-5-yl)pyridin-3-yl]piperidin-1-yl}azepane-1-carboxylate] | No Response | 3140 nM | 35% |  |  |  |
| CCOC(=O)N1CCCC(N2CCC(c3cncnc3OC)CC2)CC1 (stereo not drawn) [Example 51, Ethyl 4-[4-(4-methoxypyrimidin-5-yl)piperidin-1-yl]azepane-1-carboxylate] | No Response | 310 nM | 69% |  |  |  |
| CCOC(=O)N1CCCC(N2CCC(c3cccnc3CC)CC2)CC1 (stereo not drawn) [Example 70, Ethyl 4-[4-(2-ethylpyridin-3-yl)piperidin-1-yl]azepane-1-carboxylate] | No Response | 210 nM | 64% |  |  |  |
| CCOC(=O)N1CCC(N2CCC(c3nccn3C)CC2)CC1 [Example 1, Ethyl 4-[4-(1-methyl-1H-imidazol-2-yl)piperidin-1-yl]piperidine-1-carboxylate] |  | 2360 nM | 49% | > 10000 nM | 34% |  |
| CCOC(=O)N1CCCC(N2CCC(n3nccc3C3CC3)CC2)CC1 (stereo not drawn) [Example 20, Ethyl 4-[4-(5-cyclopropyl-1H-pyrazol-1-yl)piperidin-1-yl]azepane-1-carboxylate] |  | 190 nM | 77% | 2260 nM |  | 37% |
| CCOC(=O)N1CCC(N2CCC(c3cccnc3C)CC2)CC1 [Example 46, Ethyl 4-[4-(2-methylpyridin-3-yl)piperidin-1-yl]piperidine-1-carboxylate] | No Response | 1550 nM | 31% |  |  |  |
| CCOC(=O)N1CCCC(N2CCC(c3cc(C(F)(F)F)cnc3OC)CC2)CC1 (stereo not drawn) [Example 43, Ethyl 4-{4-[2-methoxy-5-(trifluoromethyl)pyridin-3-yl]piperidin-1-yl}azepane-1-carboxylate] |  | 20 nM | 94% | 180 nM |  | 62% |
| CCOC(=O)N1CCCC(N2CCC(c3cc(-c4cccs4)n[nH]3)CC2)CC1 (stereo not drawn) [Example 17, Ethyl 4-{4-[3-(thiophen-2-yl)-1H-pyrazol-5-yl]piperidin-1-yl}azepane-1-carboxylate] | No Response | 810 nM | 50% |  |  |  |
| CCOC(=O)N1CCCC(N2CCC(c3ncccc3OC)CC2)CC1 (stereo not drawn) [Example 38, Ethyl 4-[4-(3-methoxypyridin-2-yl)piperidin-1-yl]azepane-1-carboxylate] |  | 30 nM | 92% | 160 nM |  | 75% |
| CCOC(=O)N1CCCC(N2CCC(c3cc(C)cnc3OCC)CC2)CC1 (stereo not drawn) [Example 42, Ethyl 4-[4-(2-ethoxy-5-methylpyridin-3-yl)piperidin-1-yl]azepane-1-carboxylate] | No Response | 20 nM | 82% |  |  |  |
| CCOC(=O)N1CCCC(N2CCC(c3cccnc3-c3cnn(C)c3)CC2)CC1 (stereo not drawn) [Example 73, Ethyl 4-{4-[2-(1-methyl-1H-pyrazol-4-yl)pyridin-3-yl]piperidin-1-yl}azepane-1-carboxylate] | No Response | 650 nM | 53% |  |  |  |
| CCOC(=O)N1CCCC(N2CCC(c3cccnc3CC(C)C)CC2)CC1 (stereo not drawn) [Example 77, Ethyl 4-{4-[2-(2-methylpropyl)pyridin-3-yl]piperidin-1-yl}azepane-1-carboxylate] | No Response | 670 nM | 58% |  |  |  |
| CCOC(=O)N1CCCC(N2CCC(c3nccnc3OC)CC2)CC1 (stereo not drawn) [Example 40, Ethyl 4-[4-(3-methoxypyrazin-2-yl)piperidin-1-yl]azepane-1-carboxylate] | No Response | 140 nM | 62% |  |  |  |
| CCOC(=O)N1CCCC(N2CCC(n3nccc3-c3ccnn3C)CC2)CC1 (stereo not drawn) [Example 7, Ethyl 4-{4-[5-(1-methyl-1H-pyrazol-5-yl)-1H-pyrazol-1-yl]piperidin-1-yl}azepane-1-carboxylate] |  | 260 nM | 75% | > 10000 nM | 26% |  |
| CCOC(=O)N1CCCC(N2CCC(c3nc(C)ncc3OC)CC2)CC1 (stereo not drawn) [Example 63, Ethyl 4-[4-(5-methoxy-2-methylpyrimidin-4-yl)piperidin-1-yl]azepane-1-carboxylate] | No Response | 560 nM | 43% |  |  |  |
| CCOC(=O)N1CCC(N2CCC(c3cc(C)cnc3OCC)CC2)CC1 [Example 47, Ethyl 4-[4-(2-ethoxy-5-methylpyridin-3-yl)piperidin-1-yl]piperidine-1-carboxylate] | No Response | 160 nM | 72% |  |  |  |
| CCOC(=O)N1CCCC(N2CCC(c3ccncc3)CC2)CC1 (stereo not drawn) [Example 30, Ethyl 4-[4-(pyridin-4-yl)piperidin-1-yl]azepane-1-carboxylate] | No Response | 1660 nM | 27% |  |  |  |
| CCOC(=O)N1CCCC(N2CCC(c3cnccc3OC)CC2)CC1 (stereo not drawn) [Example 48, Ethyl 4-[4-(4-methoxypyridin-3-yl)piperidin-1-yl]azepane-1-carboxylate] | No Response | 250 nM | 63% |  |  |  |
| CCOC(=O)N1CCCC(N2CCC(n3cc(-c4ccc(F)cc4)cn3)CC2)CC1 (stereo not drawn) [Example 18, Ethyl 4-{4-[4-(4-fluorophenyl)-1H-pyrazol-1-yl]piperidin-1-yl}azepane-1-carboxylate] | No Response | 410 nM | 45% |  |  |  |
